Experiments:
[1] = Critical micelle concentration (CMC) by DPH fluorescence; format: physicochemical; details: 50 mM tris-HCl, pH 8.0
Experimental: FIG. 4 represents the fluorescence (%) of DPH (1,6-diphenyl-1,3,5-hexatriene) in the presence of increasing concentrations (0.0001 mM, 0.001 mM, 0.01 mM, 0.1 mM, 1 mM and 10 mM) of clips (compounds of the invention), exemplified with the compounds #3.7e (C13, points represented by squares) and 3.7f (C18, points represented by circles). The experiment is carried out in triplicates. In accordance with Chattopadhyay, A. & London, E ([22]), the CMC corresponds to the concentration at which the breakage in the slope is observed, here at 20 μM for 3.7f and 2 mM for 3.7e (black symbols).
Procedure. The molecules of the invention were prepared in a range of concentrations extending from 0.1 μM to 10 mM in 50 mM tris-HCl, pH 8.0 and neutralized at this pH. To 80 μl of each solution (triplicate), the same volume of 10 μM of 1,6-diphenyl-1,3,5-hexatriene (DPH, Sigma, D208000) is added, prepared at 100 μM in tetrahydrofuran then diluted 10-fold in H2O. The increase in the fluorescence of the DPH occurs when the latter find micelles of clips into which it can insert itself (Chattopadhyay, A. & London, E. Fluorimetric determination of critical micelle concentration avoiding interference from detergent charge. Anal Biochem 139, 408-412 (1984) ([22])). The fluorescence is read with a Xenius SAFAS fluorimeter by exciting at 358 nm and recording the fluorescence emission at 430 nm, with slits of 9 to 10 nm for the excitation and the emission and a gain of 100 to 150, depending on the cases.
Results. The CMC of the detergents is the concentration starting from which they associate with one another to form micelles, in which, in aqueous solution, the hydrophobic portions are grouped together at the center and the hydrophilic regions are exposed to the solvent. […] A typical result obtained with a compound 3.7 provided with a C13 (3.7e) or C18 ([…]) aliphatic chain is illustrated in FIG. 4.

[2] = Diameter of micelles by dynamic light scattering (DLS); format: physicochemical; details: estimated micelle diameter by DLS; 30 mM tris-HCl, pH 8.0
Experimental: FIG. 5 depicts the dynamic light scattering (DLS) of clips, in intensity (%, column A on the left) and in number (%, column B on the right), as a function of the […] (nm). The estimated diameters are indicated on each panel (column A). Columns A and B, from top to bottom: compound 3.7c (10 mM, 5×CMC), compound 3.7d (10 mM, 5×CMC), compound 3.7e (2 mM, […]), compound 3.7f (10 mM, 500×CMC), compound 3.7h (1 mM, 100×CMC), compound 3.7j (2 mM, 100×CMC), compound 3.9a (1 mM, 50×CMC).
Another physicochemical parameter of the micelles of detergents is their diameter, assuming that they are spherical. This dimension is obtained by the light scattering (DLS) technique.
Procedure. The molecules of the invention tested were prepared in a range of concentrations extending from 0.1 to 1000×CMC in 30 mM tris-HCl, pH 8.0 and neutralized at this pH. The solutions are filtered on 0.22 μm. The measurement is carried out on 100 μl, in triplicate on a Zetasizer Nano-S from Malvern Instruments.

[3] = target: T1, BmrA (Bacillus subtilis, UniProt O06967); test: Extraction of BmrA from membranes (SDS-PAGE of supernatant); set-up: species or system bacterial; overexpressed in E. coli C41DE3; details: detergent 10 g/l unless indicated otherwise; 2 h at 4° C.
T1 construct: His tag; made in house; host or cells: E. coli C41(DE3)
Experimental: (§1) FIG. 6 depicts the extraction of the membrane proteins BmrA (panels A and C) and AcrB (panels B and D) using commercial detergents and the molecules of the invention (panels A and B, from left to right): SDS, DDM, FC12, TX100, compounds of the invention 1.4, 1.5, 2.3a, 2.3b, 2.3c, 2.3d, 2.3e, 2.3f, 2.3g, 2.3h, 2.3i, 3.7a, 3.7b; panel C: compounds of the invention 3.7c 0.8%, 3.7d 0.16%, 3.7e 0.8%, 3.7f 0.3%, 3.7g 0.4%, 3.7h 0.2%, 3.7i 0.07%, 3.7j 0.09%, 3.7k, 3.7l, 0.25%, 3.9a, 4.5a, 4.5b, 4.5c, 4.5d 0.34%, 4.6a, 4.6b, 4.6c, 4.6d, 5.3a, 5.3b, 5.3c 0.3%, 5.3d 0.3%; panel D: 3.7c, 3.7d, 3.7e, 3.7f, 3.7h, 3.7i 0.1%, 3.7j, 3.7k, 3.7l, 3.9a, 4.5a, 4.5b, 4.5c, 4.5d, 4.6a, 4.6b, 4.6c, 4.6d. The detergents are added at 10 g/l (1%), unless indicated otherwise. The equivalent of 20 μg of proteins of the extracted fraction after centrifugation at 100 000×g for 30 min is deposited on 10% SDS-PAGE, stained with Coomassie blue after migration. BmrA migrates in its monomeric form to the level of the 55 kDa band; AcrB migrates in its monomeric form to the level of the 100 kDa band. SDS=sodium dodecyl sulfate; DDM=β-D-dodecyl maltoside; FC12=foscholine-12; TX100=triton X-100.
(§2) The extraction capacity of the detergents of the series is tested on membranes in which BmrA or AcrB are strongly expressed. The extraction with the clips (molecules of the invention) is compared to that obtained with commercial detergents, used as reference.
(§3) Procedure. BmrA represents 25% of the proteins present in the overexpression system used (E. coli, C41DE3). These membranes are prepared as described previously (Matar-Merheb, R. et al. ([11])). The membranes containing AcrB (approximately 20% of the membrane proteins, same expression system as BmrA) were prepared as described previously (Seeger, M. A. et al. ([21])). The detergents are used at 10 g/l unless indicated otherwise, and the proteins diluted at 2 g/l in a 20 mM Tris-HCl buffer, pH 8.0, 100 mM NaCl, 15% glycerol, with protease inhibitors (Roche) added thereto at an amount of one tablet/100 ml. The mixture (T) is incubated for 2 h at 4° C. then centrifuged for 1 h at 4° C. at 100 000×g in order to separate the extracted fraction (supernatant, S) from that which is not extracted (pellet). The supernatants are deposited on 10% SDS-PAGE and stained with Coomassie blue after migration. The foscholine 12, DDM and LMNG originate from Anatrace, the SDS and Triton X100 originate from Sigma-Aldrich.

[4] = target: T2, AcrB (Escherichia coli, UniProt P31224); test: Extraction of AcrB from membranes (SDS-PAGE of supernatant); set-up: species or system bacterial; same expression system (E. coli C41DE3); details: detergent 10 g/l unless indicated otherwise; 2 h at 4° C.
T2 construct: made in house; host or cells: E. coli C41(DE3)
Experimental: as §1, §2, §3

[5] = target: T1, BmrA; test: Size exclusion chromatography of BmrA after detergent exchange; details: Superdex 200 5/150, 2 CMC of detergent, 0.3 ml/min
Experimental: The membrane fraction was extracted and purified in DDM by Ni-NTA metal affinity and Superdex 200 size exclusion, before being reloaded on Ni-NTA in order to exchange the DDM either with itself or with the compound 3.7c. Each pool was subsequently loaded onto a 3 ml Superdex S200 5/150 size exclusion column and eluted in the presence of 2 CMC of the same detergent, as indicated. The proteins are detected by absorbance at 280 nm.
The capacity of the compounds of the invention to maintain the membrane proteins in a native state was exemplified with the compound 3.7c of the invention, monitored by size exclusion chromatography and compared to the reference detergent DDM.
Procedure: BmrA was extracted in DDM and purified by Ni-NTA affinity chromatography as described in example 13, then loaded onto a Superdex 200 10/300 size exclusion column and eluted with 50 mM Hepes-HCl pH 8.0, 100 mM NaCl, 0.4 mM DDM (2×CMC). The fractions containing BmrA were pooled and separated into several aliquots (˜100 μg) kept at 4° C. One aliquot was subsequently reloaded onto an affinity column containing 1 ml of resin. The DDM was then exchanged against 10 volumes of Hepes-NaCl buffer containing either 2 CMC of DDM (control experiment) or 2 CMC of compound 3.7c (2 mM). BmrA was subsequently eluted in the respective buffers with 100 mM of imidazole added. The fractions containing the proteins were combined and concentrated on 50 kDa amicon (regenerated cellulose) to 50 μl, and were then deposited on a 3 ml Superdex 200 5/150 size exclusion column, equilibrated in 50 mM Hepes-HCl pH 8.0, 100 mM NaCl, and 2 CMC of DDM (0.4 mM) or 3.7c (2 mM). The elution was subsequently carried out at 0.3 ml/min in the respective buffers and the BmrA detected at 280 nm.

T1 sequence (O06967 whole entry): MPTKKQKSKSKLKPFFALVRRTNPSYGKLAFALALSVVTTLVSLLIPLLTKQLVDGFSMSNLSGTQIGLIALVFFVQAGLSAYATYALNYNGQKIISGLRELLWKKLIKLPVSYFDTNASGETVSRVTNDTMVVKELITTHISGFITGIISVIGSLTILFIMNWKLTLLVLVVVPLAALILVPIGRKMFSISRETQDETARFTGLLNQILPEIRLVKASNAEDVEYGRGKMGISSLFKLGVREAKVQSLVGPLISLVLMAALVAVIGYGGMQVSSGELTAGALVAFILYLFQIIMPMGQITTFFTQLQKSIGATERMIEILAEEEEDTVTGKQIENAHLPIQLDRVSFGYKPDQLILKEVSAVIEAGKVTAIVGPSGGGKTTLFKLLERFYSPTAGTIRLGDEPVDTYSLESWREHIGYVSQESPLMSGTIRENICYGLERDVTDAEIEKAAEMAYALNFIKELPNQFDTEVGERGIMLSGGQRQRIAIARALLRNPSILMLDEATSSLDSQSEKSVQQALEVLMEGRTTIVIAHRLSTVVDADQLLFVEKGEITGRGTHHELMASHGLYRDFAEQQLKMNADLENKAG
T2 sequence (P31224 whole entry): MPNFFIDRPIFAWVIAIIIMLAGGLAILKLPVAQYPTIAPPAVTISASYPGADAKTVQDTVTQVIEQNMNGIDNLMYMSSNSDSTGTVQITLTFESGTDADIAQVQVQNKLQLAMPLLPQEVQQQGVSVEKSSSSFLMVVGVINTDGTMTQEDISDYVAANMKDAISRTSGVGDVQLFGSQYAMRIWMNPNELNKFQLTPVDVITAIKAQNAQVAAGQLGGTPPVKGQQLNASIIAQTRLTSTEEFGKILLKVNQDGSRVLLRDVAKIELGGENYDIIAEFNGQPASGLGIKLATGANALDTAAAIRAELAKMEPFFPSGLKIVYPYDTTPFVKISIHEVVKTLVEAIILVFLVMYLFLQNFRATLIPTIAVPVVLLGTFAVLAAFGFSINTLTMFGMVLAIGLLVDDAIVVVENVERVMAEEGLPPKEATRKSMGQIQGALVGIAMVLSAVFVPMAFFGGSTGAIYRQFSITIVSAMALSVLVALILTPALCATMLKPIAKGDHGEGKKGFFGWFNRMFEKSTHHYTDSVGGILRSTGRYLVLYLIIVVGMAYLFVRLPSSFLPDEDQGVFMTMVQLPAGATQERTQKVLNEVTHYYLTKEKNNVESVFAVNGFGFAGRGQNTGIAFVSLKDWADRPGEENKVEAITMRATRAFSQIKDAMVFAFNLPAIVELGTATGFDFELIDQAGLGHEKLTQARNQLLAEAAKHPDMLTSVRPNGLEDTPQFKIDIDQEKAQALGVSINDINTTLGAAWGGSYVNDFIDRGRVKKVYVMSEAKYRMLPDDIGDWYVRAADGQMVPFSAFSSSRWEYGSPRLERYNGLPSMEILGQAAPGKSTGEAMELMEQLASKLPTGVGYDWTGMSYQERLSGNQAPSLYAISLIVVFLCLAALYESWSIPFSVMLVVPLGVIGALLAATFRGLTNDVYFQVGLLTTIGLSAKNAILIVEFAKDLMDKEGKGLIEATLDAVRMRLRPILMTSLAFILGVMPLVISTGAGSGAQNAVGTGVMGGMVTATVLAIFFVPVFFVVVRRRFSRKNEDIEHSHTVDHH

Compound	CMC [1] [mM]	Ø, nm [2]	extraction of BmrA [3]	extraction of AcrB [4]	elution volume of BmrA [5] [mL]
CCCCCCCCCCCCCCCCCCC(=O)N[C@@H](COCc1cn(CCOCCOCCOCCOCCOCCOC)nn1)C(=O)N[C@H](CCC(=O)O)C(=O)O [Compound 3.7h]	0.01	3-4 nm	extracting	extracting	
CCCCCCCCCCCCO[C@@H]1O[C@H](CO)[C@@H](O[C@H]2O[C@H](CO)[C@@H](O)[C@H](O)[C@H]2O)[C@H](O)[C@H]1O [DDM, n-dodecyl β-d-maltoside, reference compound]			solubilize	solubilize	~1.6
